In US10155769B2, “Fused azaheterocyclic compounds and their use as AMPA receptor modulators” (Janssen Pharmaceutica NV, priority 2016, dated 2018):

Target: GluA1o-γ8 (Homo sapiens (Human), UniProt P42261+Q8WXS5)
Experiment: Calcium flux assay (FLIPR), inhibition of TARP γ8 dependent AMPA receptor activity
Assay type: cell-based
Details: HEK293 cells stably expressing GRIA1o-CACNG8 fusion construct; calcium flux following 15 μM glutamate; negative log of IC50 in molar
Excerpt: This assay was used to test compounds for their ability to inhibit TARP γ8 dependent AMPA receptor activity. The AMPA receptor is a non-selective cation channel activated by glutamate. Ionotropic glutamate receptors normally desensitize too rapidly to allow detectable calcium influx in a FLIPR assay (Strange et al. (2006). “Functional characterisation of homomeric ionotropic glutamate receptors GluR1-GluR6 in a fluorescence-based high throughput screening assay.” Comb Chem High Throughput Screen 9(2): 147-158). But, this desensitization is incomplete, and a substantial steady-state current remains in the sustained presence of glutamate (Cho et al. (2007). “Two families of TARP isoforms that have distinct effects on the kinetic properties of AMPA receptors and synaptic currents.” Neuron 55(6): 890-904).
An in vitro assay was used to determine the potency of test compounds as inhibitors of the glutamate response of the channel formed by GluA1o-γ8. To ensure a 1:1 stoichiometry of GluA1o and γ8 subunits in the expressed channel, a fusion of the cDNAs for GRIA1o and CACNG8 was used. Following Shi et al (2009) “The stoichiometry of AMPA receptors and TARPs varies by neuronal cell type.” Neuron 62(5): 633-640), the C-terminus of the cDNA for GRIA1o was fused to the N-terminus of the cDNA for γ8. The linker sequence was QQQQQQQQQQEFAT. Channels expressed with this construct appear to have similar properties to channels formed by co-expression of GRIA1o with an excess of CACNG8 (Shi et al. 2009). A clonal cell line in HEK293 cells stably expressing this construct, with a geneticin selection marker, was generated for use in this assay.
Cell expressing the GRIA1o-CACNG8 fusion construct were grown in a monolayer in 96- or 384-well microtiter plates. They were washed with assay buffer (135 mM NaCl, 4 mM KCl, 3 mM CaCl2, 1 mM MgCl2, 5 mM glucose, 10 mM HEPES, pH 7.4, 300 mOs) using a Biotek EL405 plate washer. The cells were then loaded with a calcium-sensitive dye (Calcium-5 or Calcium-6, Molecular Devices) and the test compounds at a range of concentrations. Calcium flux following the addition of 15 μM glutamate was monitored using a Molecular Devices FLIPR Tetra.
The fluorescence in each well was normalized to the fluorescence of negative and positive control wells. The negative control wells had no added compounds, and the positive control wells had been incubated with 10 μM CP465022 (a non-subtype-selective AMPA receptor antagonist) (Lazzaro et al. (2002). “Functional characterization of CP-465,022, a selective, noncompetitive AMPA receptor antagonist.” Neuropharmacology 42(2): 143-153). The responses to glutamate as functions of the test compound concentrations were fitted to a four-parameter logistic function. The fitted parameter corresponding to the midpoint was taken to be the potency of inhibition of the compound. The data in Table 4 below illustrates the observed potency for the compounds described herein. pIC50 refers to the negative log of the IC50 in molar.

Sequence of GluA1o-γ8 (P42261 other isoform, or with tags, fused parts or gaps): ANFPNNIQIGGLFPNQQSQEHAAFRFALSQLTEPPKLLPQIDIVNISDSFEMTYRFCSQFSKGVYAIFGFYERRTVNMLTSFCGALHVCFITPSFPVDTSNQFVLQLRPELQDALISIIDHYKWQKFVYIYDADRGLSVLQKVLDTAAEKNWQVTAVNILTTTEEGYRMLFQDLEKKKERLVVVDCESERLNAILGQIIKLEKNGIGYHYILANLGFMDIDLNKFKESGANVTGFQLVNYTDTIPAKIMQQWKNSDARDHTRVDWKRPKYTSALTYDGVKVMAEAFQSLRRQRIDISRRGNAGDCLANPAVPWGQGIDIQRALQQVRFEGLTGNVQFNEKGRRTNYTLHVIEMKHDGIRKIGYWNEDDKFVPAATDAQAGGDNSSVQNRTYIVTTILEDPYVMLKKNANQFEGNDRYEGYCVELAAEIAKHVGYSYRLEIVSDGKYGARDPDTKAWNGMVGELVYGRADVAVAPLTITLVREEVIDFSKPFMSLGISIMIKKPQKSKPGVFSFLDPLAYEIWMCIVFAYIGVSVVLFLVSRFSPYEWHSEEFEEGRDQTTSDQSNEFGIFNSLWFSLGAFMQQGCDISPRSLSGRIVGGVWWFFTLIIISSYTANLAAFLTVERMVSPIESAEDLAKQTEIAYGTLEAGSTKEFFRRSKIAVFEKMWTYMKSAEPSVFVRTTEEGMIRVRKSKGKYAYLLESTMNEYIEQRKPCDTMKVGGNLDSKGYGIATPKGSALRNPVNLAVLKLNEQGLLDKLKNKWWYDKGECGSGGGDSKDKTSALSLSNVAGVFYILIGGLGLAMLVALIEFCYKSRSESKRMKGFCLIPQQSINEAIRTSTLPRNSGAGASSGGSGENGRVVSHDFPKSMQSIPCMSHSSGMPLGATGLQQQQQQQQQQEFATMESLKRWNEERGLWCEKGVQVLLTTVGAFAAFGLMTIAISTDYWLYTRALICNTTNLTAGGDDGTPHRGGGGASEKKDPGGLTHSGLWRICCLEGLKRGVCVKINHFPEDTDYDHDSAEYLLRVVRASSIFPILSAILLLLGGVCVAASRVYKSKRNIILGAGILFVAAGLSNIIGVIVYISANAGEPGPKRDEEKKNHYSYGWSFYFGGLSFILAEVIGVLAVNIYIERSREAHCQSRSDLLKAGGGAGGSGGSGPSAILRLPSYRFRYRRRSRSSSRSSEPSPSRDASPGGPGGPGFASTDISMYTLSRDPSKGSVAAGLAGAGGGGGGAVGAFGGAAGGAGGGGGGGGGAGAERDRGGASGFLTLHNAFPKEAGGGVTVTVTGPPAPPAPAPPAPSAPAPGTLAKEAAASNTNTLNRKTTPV

pIC50 | Compound
8.9 | Cc1cc(-c2c(C(F)(F)F)ncn3cc(C(F)(F)F)nc23)cc2cn[nH]c12 [Example 63, 8-(7-Methyl-1H-indazol-5-yl)-2,7-bis(trifluoromethyl)imidazo[1,2-c]pyrimidine]
9.3 | CCc1cn2cnc(C(F)(F)F)c(-c3cc(Cl)c4[nH]ncc4c3)c2n1 [Example 64, 8-(7-Chloro-1H-indazol-5-yl)-2-ethyl-7-(trifluoromethyl)imidazo[1,2-c]pyrimidine]
8.8 | CCc1cn2cnc(C(F)(F)F)c(-c3cc(C)c4[nH]ncc4c3)c2n1 [Example 65, 2-Ethyl-8-(7-methyl-1H-indazol-5-yl)-7-(trifluoromethyl)imidazo[1,2-c]pyrimidine]
10.0 | CC(C)c1cn2cnc(C(F)(F)F)c(-c3cc(Cl)c4[nH]ncc4c3)c2n1 [Example 66, 8-(7-Chloro-1H-indazol-5-yl)-2-isopropyl-7-(trifluoromethyl)imidazo[1,2-c]pyrimidine]
9.9 | FC(F)(F)c1ncn2cc(C3CC3)nc2c1-c1cc(Cl)c2[nH]ncc2c1 [Example 67, 8-(7-Chloro-1H-indazol-5-yl)-2-cyclopropyl-7-(trifluoromethyl)imidazo[1,2-c]pyrimidine]
9.6 | Cc1cc(-c2c(C(F)(F)F)ncn3cc(C4CC4)nc23)cc2cn[nH]c12 [Example 68, 2-Cyclopropyl-8-(7-methyl-1H-indazol-5-yl)-7-(trifluoromethyl)imidazo[1,2-c]pyrimidine]
9.5 | O=C1Cc2cc(-c3c(C(F)(F)F)ncn4cc(C5CC5)nc34)cc(Cl)c2N1 [Example 69, 7-Chloro-5-[2-cyclopropyl-7-(trifluoromethyl)imidazo[1,2-c]pyrimidin-8-yl]indolin-2-one]
5.3 | O=C1Cc2cc(-c3c(C(F)(F)F)ncn4cc(C5CC5)nc34)cc(F)c2N1 [Example 70, 5-[2-Cyclopropyl-7-(trifluoromethyl)imidazo[1,2-c]pyrimidin-8-yl]-7-fluoro-indolin-2-one]
9.8 | CC(C)c1ncn2cc(C(F)(F)F)nc2c1-c1cc(Cl)c2[nH]ncc2c1 [Example 71, 8-(7-Chloro-1H-indazol-5-yl)-7-isopropyl-2-(trifluoromethyl)imidazo[1,2-c]pyrimidine]
9.5 | CC(C)c1ncn2cc(C(F)F)nc2c1-c1cc(Cl)c2[nH]ncc2c1 [Example 72, 8-(7-Chloro-1H-indazol-5-yl)-2-(difluoromethyl)-7-isopropyl-imidazo[1,2-c]pyrimidine]
9.1 | CCc1ncn2cc(C(F)(F)F)nc2c1-c1cc(Cl)c2[nH]ncc2c1 [Example 73, 8-(7-Chloro-1H-indazol-5-yl)-7-ethyl-2-(trifluoromethyl)imidazo[1,2-c]pyrimidine]
8.7 | CCc1ncn2cc(C(F)(F)F)nc2c1-c1cc(C)c2[nH]ncc2c1 [Example 74, 7-Ethyl-8-(7-methyl-1H-indazol-5-yl)-2-(trifluoromethyl)imidazo[1,2-c]pyrimidine]
8.9 | CCc1ncn2cc(C(F)F)nc2c1-c1cc(Cl)c2[nH]ncc2c1 [Example 75, 8-(7-Chloro-1H-indazol-5-yl)-2-(difluoromethyl)-7-ethyl-imidazo[1,2-c]pyrimidine]
8.5 | Cc1ncn2cc(C(F)(F)F)nc2c1-c1cc(Cl)c2[nH]ncc2c1 [Example 76, 8-(7-Chloro-1H-indazol-5-yl)-7-methyl-2-(trifluoromethyl)imidazo[1,2-c]pyrimidine]
9.0 | FC(F)(F)c1cn2cnc(C3CC3)c(-c3cc(Cl)c4[nH]ncc4c3)c2n1 [Example 77, 8-(7-Chloro-1H-indazol-5-yl)-7-cyclopropyl-2-(trifluoromethyl)imidazo[1,2-c]pyrimidine]
8.6 | FC(F)c1cn2cnc(C3CC3)c(-c3cc(Cl)c4[nH]ncc4c3)c2n1 [Example 78, 8-(7-Chloro-1H-indazol-5-yl)-7-cyclopropyl-2-(difluoromethyl)imidazo[1,2-c]pyrimidine]
8.9 | Cc1nc(C2CC2)c(-c2cc(Cl)c3[nH]ncc3c2)c2nc(C(F)(F)F)cn12 [Example 79]
9.2 | Cc1nc(C2CC2)c(-c2cc(Cl)c3[nH]ncc3c2)c2nc(C(F)F)cn12 [Example 80, 8-(7-Chloro-1H-indazol-5-yl)-7-cyclopropyl-2-(difluoromethyl)-5-methyl-imidazo[1,2-c]pyrimidine]
9.9 | FC(F)(F)c1ncn2c(Cl)c(C3CC3)nc2c1-c1cc(Cl)c2[nH]ncc2c1 [Example 81, 3-Chloro-8-(7-chloro-1H-indazol-5-yl)-2-cyclopropyl-7-(trifluoromethyl)imidazo[1,2-c]pyrimidine]
9.5 | Fc1c(C2CC2)nc2c(-c3cc(Cl)c4[nH]ncc4c3)c(C(F)(F)F)ncn12 [Example 82, 8-(7-Chloro-1H-indazol-5-yl)-2-cyclopropyl-3-fluoro-7-(trifluoromethyl)imidazo[1,2-c]pyrimidine]
9.8 | O=C1Cc2cc(-c3c(C(F)(F)F)ccn4cc(C(F)(F)F)nc34)cc(Cl)c2N1 [Example 86, 5-(2,7-Bis(trifluoromethyl)imidazo[1,2-a]pyridin-8-yl)-7-chloroindolin-2-one]
9.4 | Cc1cc(-c2c(C(F)(F)F)ccn3cc(C(F)(F)F)nc23)cc2c1NC(=O)C2 [Example 87, 5-(2,7-Bis(trifluoromethyl)imidazo[1,2-a]pyridin-8-yl)-7-methylindolin-2-one]
10.3 | FC(F)(F)c1cn2ccc(C(F)(F)F)c(-c3cc(Cl)c4[nH]ncc4c3)c2n1 [Example 88, 5-(2,7-Bis(trifluoromethyl)imidazo[1,2-a]pyridin-8-yl)-7-chloro-1H-indazole]
10.6 | CC(C)c1cn2ccc(C(F)(F)F)c(-c3cc(Cl)c4[nH]ncc4c3)c2n1 [Example 89, 8-(7-Chloro-1H-indazol-5-yl)-2-isopropyl-7-(trifluoromethyl)imidazo[1,2-a]pyridine]
9.6 | Cc1cc(-c2c(C(F)(F)F)ccn3cc(C4CC4)nc23)cc2cn[nH]c12 [Example 91, 2-Cyclopropyl-8-(7-methyl-1H-indazol-5-yl)-7-(trifluoromethyl)imidazo[1,2-a]pyridine]
9.4 | CCc1cn2ccc(C(F)(F)F)c(-c3cc(C)c4[nH]ncc4c3)c2n1 [Example 92, 2-Ethyl-8-(7-methyl-1H-indazol-5-yl)-7-(trifluoromethyl)imidazo[1,2-a]pyridine]
9.3 | Cc1cc(-c2c(C(F)(F)F)ccn3cc(C(F)F)nc23)cc2cn[nH]c12 [Example 93, 2-(Difluoromethyl)-8-(7-methyl-1H-indazol-5-yl)-7-(trifluoromethyl)imidazo[1,2-a]pyridine]
8.1 | Cc1cn2ccc(C(F)(F)F)c(-c3cc(C)c4[nH]ncc4c3)c2n1 [Example 94, 2-Methyl-8-(7-methyl-1H-indazol-5-yl)-7-(trifluoromethyl)imidazo[1,2-a]pyridine]
